Assay results published in US20210386729A1, “METHODS FOR TREATING LIVER DISORDERS USING FXR AGONISTS” (NOVARTIS AG, priority 2016, published 2021).
≈ marks a conversion by molar mass, not a printed value. Entries after “also recorded” stand apart in the source; their conditions may differ. Like-named read-outs stand apart in the source and are kept apart here.

Assays:
[1] = test system: rat ANIT-induced cholestasis chronic treatment model; assay: PK/PD modeling of effective exposure in rat ANIT-induced cholestasis chronic treatment model; assay type: in vivo
Description: Male Wistar rats were treated with ANIT (0.1% ANIT in chow diet) for 2 weeks. […] The serum samples were collected on day 14 for analysis of biomarkers of hepatobiliary injury (including ALT, AST, bilirubin and bile acids). The PK samples (pre-dose, 0.5, 1, 3, 7, 10 and 24 h, n=3/dose group) were taken on day 13 (at steady-state). […] The mean biomarker data were compared to the PK data (average concentration at each dose) for the modeling. The IC80 was determined using the Inhibitory effect Imax model (effect C=0 at Imax, C=infinity at E0) built in Phoenix WinNonlin 6.3 software. […] Therefore, we chose to use a mean of the IC80 for the four biomarkers (total bilirubin, total bile acids, ALT and AST) as the IC80 for efficacy in this model. From these studies, the IC80 of LJN452 was 0.127 ng/ml and the corresponding AUC0-24 h was 3.05 ng*h/ml (Table 1), and the corresponding efficacious dose is approximately 0.01 mg/kg (based on Table 1 and Table 2).
E0, effect at zero drug concentration; Imax, maximal drug effect; IC80, drug concentration producing 80% of the maximum effect.
The PK samples (pre-dose, 0.5, 1, 3, 7, 10 and 24 h, n=3/dose group) were taken on day 13 (at steady-state). AUC0-24 h was determined using Phoenix WinNonlin 6.3 software and the average concentrations were calculated from mean of AUC0-24 h at each dose (divided the AUC0-24 h by 24 h). The individual biomarker data were compared to the PK data (average concentration at each dose) for the modeling. Since the lowest dose (0.01 mg/kg) already approached maximal efficacy, the IC80 was chosen as the measurement of the efficacious exposure (Table 1). The IC80 was determined using the Inhibitory effect Imax model (effect C=0 at Imax, C=infinity at E0) built in Phoenix WinNonlin 6.3 software.
E0: effect at zero drug concentration; Imax: maximal drug effect IC80, drug concentration producing 80% of the maximum effect.

[2] = Multiple oral dose plasma pharmacokinetics in healthy subjects; assay type: in vivo, human; conditions: for Cmax / AUC / Tmax: human, plasma
[3] = Food effect (high-fat meal vs fasted) on pharmacokinetics; assay type: in vivo, human; conditions: taken with a high-fat meal
Description: To avoid variability in drug exposure, it is recommended that throughout the treatment period, patients will be directed to take study drug at home with ˜240 mL (8 ounces) of water in the morning in a fasting state, at least 30 min prior to the first beverage apart from water and 60 min prior to first meal of the day, preferably at the same time of the day.

[4] = Human efficacy dose calculation from rat efficacious exposure
Description: The human efficacy dose was calculated based on the efficacious exposure in the rat ANIT-induced disease model. Since the in vitro potency and protein binding between human and rat were similar, the EC80 exposure in human was assumed to be the same as that in rat (3.05 ng*h/mL).

[5] = In vitro potency, human vs rat
[6] = Protein binding, human vs rat; assay type: in vitro ADME
[7] = test system: FGF19; conditions: healthy subjects, single and repeated dosing
[8] = effect at zero drug concentration, 2-week rat ANIT model, serum
[9] = maximal drug effect, 2-week rat ANIT model, serum
[10] = healthy subjects, 10 μg qd, Day 1, plasma, mean
[11] = healthy subjects, 10 μg qd, Day 13, plasma, mean
[12] = healthy subjects, 30 μg qd, Day 1, plasma, mean
[13] = healthy subjects, 30 μg qd, Day 13, plasma, mean
[14] = healthy subjects, 60 μg qd, Day 1, plasma, mean
[15] = healthy subjects, 60 μg qd, Day 13, plasma, mean
[16] = healthy subjects, 100 μg qd, Day 1, plasma, mean
[17] = healthy subjects, 100 μg qd, Day 13, plasma, mean

O=C(O)c1cc(F)c2nc(N3C4CC[C@H]3CC(OCc3c(-c5ccccc5OC(F)(F)F)noc3C3CC3)C4)sc2c1 (stereo partly drawn) [Compound A]
Mean (efficacious AUC0-24 h) ([1]; AUC0-24 h corresponding to mean IC80, rat ANIT model): 3.05 ng·h/mL
IC80 ([1]; drug concentration producing 80% of the maximum effect, rat ANIT model, read-out: IC80, ALT): 0.054 ng/mL (≈ 0.0895 nM)
IC80 ([1]; drug concentration producing 80% of the maximum effect, rat ANIT model, read-out: IC80, AST): 0.076 ng/mL (≈ 0.126 nM)
IC80 ([1]; drug concentration producing 80% of the maximum effect, rat ANIT model, read-out: IC80, Total bile acids): 0.155 ng/mL (≈ 0.257 nM)
IC80 ([1]; drug concentration producing 80% of the maximum effect, rat ANIT model, read-out: IC80, Total bilirubin): 0.223 ng/mL (≈ 0.369 nM)
E0, ALT [1, 8]: 138.2 U/L
E0, AST [1, 8]: 272.8 U/L
E0, Total bile acids [1, 8]: 147.8 µmol/L
E0, Total bilirubin [1, 8]: 2.3 mg/dL
Imax, ALT [1, 9]: 84.2 U/L
Imax, AST [1, 9]: 140.3 U/L
Imax, Total bile acids [1, 9]: 125.5 µmol/L
Imax, Total bilirubin [1, 9]: 2.0 mg/dL
IC80 ([1]; mean of IC80 for total bilirubin, total bile acids, ALT and AST, rat ANIT model, read-out: Mean (IC80)): 0.127 ng/mL (≈ 0.21 nM)
corresponding efficacious dose ([1]; rat ANIT model, based on Table 1 and Table 2): approximately 0.01 mg/kg
Racc [2, 10]: 1.00
Tlast [2, 10]: 23.9 h
Racc [2, 11]: 1.87
Tlast [2, 11]: 23.6 h
Racc [2, 12]: 1.00
Tlast [2, 12]: 23.9 h
Racc [2, 13]: 1.21
Tlast [2, 13]: 23.6 h
Racc [2, 14]: 1.00
Tlast [2, 14]: 23.9 h
Racc [2, 15]: 1.66
Tlast [2, 15]: 22.3 h
Racc [2, 16]: 1.00
Tlast [2, 16]: 23.9 h
Racc [2, 17]: 1.41
Tlast [2, 17]: 23.6 h
Cmax ([2]; oral, 10 μg, average Cmax at day 13 for a dose level of 10 μg, exposures for the doses 10-100 μg normalized to 10 μg): 0.32 ng/mL
AUC ([2]; oral, 10 μg, exposures for the doses 10-100 μg normalized to 10 μg, read-out: average AUCtau at day 13 for a dose level of 10 μg): 4.84 ng·h/mL
AUC ([2]; oral, 10 ug, healthy subjects, 10 μg qd, Day 1, plasma, mean, read-out: AUCtau): 2.88 ng·h/mL
Cmax ([2]; oral, 10 ug, healthy subjects, 10 μg qd, Day 1, plasma, mean, read-out: Cmax): 0.212 ng/mL
Tmax ([2]; oral, 10 ug, healthy subjects, 10 μg qd, Day 1, plasma, median, read-out: Tmax): 4 h
AUC ([2]; oral, 10 ug, healthy subjects, 10 μg qd, Day 13, plasma, mean, read-out: AUCtau): 4.88 ng·h/mL
Cmax ([2]; oral, 10 ug, healthy subjects, 10 μg qd, Day 13, plasma, mean, read-out: Cmax): 0.319 ng/mL
Tmax ([2]; oral, 10 ug, healthy subjects, 10 μg qd, Day 13, plasma, median, read-out: Tmax): 4 h
AUC ([2]; oral, 30 ug, healthy subjects, 30 μg qd, Day 1, plasma, mean, read-out: AUCtau): 11.7 ng·h/mL
Cmax ([2]; oral, 30 ug, healthy subjects, 30 μg qd, Day 1, plasma, mean, read-out: Cmax): 0.894 ng/mL
Tmax ([2]; oral, 30 ug, healthy subjects, 30 μg qd, Day 1, plasma, median, read-out: Tmax): 6 h
AUC ([2]; oral, 30 ug, healthy subjects, 30 μg qd, Day 13, plasma, mean, read-out: AUCtau): 14 ng·h/mL
Cmax ([2]; oral, 30 ug, healthy subjects, 30 μg qd, Day 13, plasma, mean, read-out: Cmax): 0.943 ng/mL
Tmax ([2]; oral, 30 ug, healthy subjects, 30 μg qd, Day 13, plasma, median, read-out: Tmax): 4 h
AUC ([2]; oral, 60 ug, healthy subjects, 60 μg qd, Day 1, plasma, mean, read-out: AUCtau): 16.2 ng·h/mL
Cmax ([2]; oral, 60 ug, healthy subjects, 60 μg qd, Day 1, plasma, mean, read-out: Cmax): 1.22 ng/mL
Tmax ([2]; oral, 60 ug, healthy subjects, 60 μg qd, Day 1, plasma, median, read-out: Tmax): 4 h
AUC ([2]; oral, 60 ug, healthy subjects, 60 μg qd, Day 13, plasma, mean, read-out: AUCtau): 25.3 ng·h/mL
Cmax ([2]; oral, 60 ug, healthy subjects, 60 μg qd, Day 13, plasma, mean, read-out: Cmax): 1.61 ng/mL
Tmax ([2]; oral, 60 ug, healthy subjects, 60 μg qd, Day 13, plasma, median, read-out: Tmax): 4 h
AUC ([2]; oral, 100 ug, healthy subjects, 100 μg qd, Day 1, plasma, mean, read-out: AUCtau): 30.3 ng·h/mL
Cmax ([2]; oral, 100 ug, healthy subjects, 100 μg qd, Day 1, plasma, mean, read-out: Cmax): 2.4 ng/mL
Tmax ([2]; oral, 100 ug, healthy subjects, 100 μg qd, Day 1, plasma, median, read-out: Tmax): 4 h
AUC ([2]; oral, 100 ug, healthy subjects, 100 μg qd, Day 13, plasma, mean, read-out: AUCtau): 50.2 ng·h/mL
Cmax ([2]; oral, 100 ug, healthy subjects, 100 μg qd, Day 13, plasma, mean, read-out: Cmax): 3.47 ng/mL
Tmax ([2]; oral, 100 ug, healthy subjects, 100 μg qd, Day 13, plasma, median, read-out: Tmax): 4 h
Tmax ([2]; po, once daily oral dosing 10-100 μg, fasted, post-dose, read-out: Tmax range): 3 to 10 h
Tmax ([2]; po, once daily oral dosing for 13 days, fasted, Day 13, across all doses, read-out: median Tmax): 4 h
dose proportionality of Cmax and AUCtau ([2]; once daily doses for 13 days, 10-100 μg): approximately dose-proportional increase
time to steady-state ([2]; once daily oral dosing, trough levels): ≤ 4 days
Tmax ([3]; human, plasma, oral, read-out: median Tmax): 9 h
increase of mean AUCinf compared to the fasted state [3]: approximately 60%
increase of mean Cmax compared to the fasted state [3]: approximately 60%
Cmax at estimated human efficacious dose ([4]; at dose of ~6 μg): ~0.2 ng/mL
EC80 exposure ([4]; rat value, human assumed to be the same): 3.05 ng·h/mL
in vitro potency between human and rat [5]: similar
protein binding between human and rat [6]: similar
FGF19 response to dose [7]: Dose-dependent increases; also recorded: continues to rise with increasing Compound A doses beyond 100 μg
